From patent US11141452B2, “Bifunctional compounds for relief of pain comprising an opioid receptor agonist moiety and a NK1 receptor antagonist moiety and methods for treating pain” (THE ARIZONA BOARD OF REGENTS ON BEHALF OF THE UNIVERSITY OF …, priority 2014, dated 2021)
Where “and” joins values, the source holds several entries; their conditions need not be identical. Identical values can stand only once. Non-standard residues stand in square brackets, D forms with d. Residues, ends and D or L forms follow the SMILES beside them. *: point of attachment. NH(3,5-(CF3)2-benzyl) = FC(F)(F)c1cc(CN*)cc(C(F)(F)F)c1; NMeBn(3,5-(CF3)2) = CN(Cc1cc(C(F)(F)F)cc(C(F)(F)F)c1)*; Dmt = Cc1cc(O)cc(C)c1C[C@H](N)C(=O)O; NMeF = CN[C@@H](Cc1ccccc1)C(=O)O; Orn = NCCC[C@H](N)C(=O)O

Key:
NK1R = biological target: T1, NK1R (Cavia porcellus, UniProt P30547); assay: GPI/LMMP functional assay at NK1R (agonist and antagonist testing); assay type: cell-based, guinea pig; details: for GPI/LMMP (NK1R) Agonist: agonist activity at the concentration in the cell
T1 construct: The longitudinal muscle with myenteric plexus (LMMP) was carefully separated from the circular muscle; from tissue; host or cells: guinea pig ileum longitudinal muscle with myenteric plexus
T1 sequence (P30547 whole entry): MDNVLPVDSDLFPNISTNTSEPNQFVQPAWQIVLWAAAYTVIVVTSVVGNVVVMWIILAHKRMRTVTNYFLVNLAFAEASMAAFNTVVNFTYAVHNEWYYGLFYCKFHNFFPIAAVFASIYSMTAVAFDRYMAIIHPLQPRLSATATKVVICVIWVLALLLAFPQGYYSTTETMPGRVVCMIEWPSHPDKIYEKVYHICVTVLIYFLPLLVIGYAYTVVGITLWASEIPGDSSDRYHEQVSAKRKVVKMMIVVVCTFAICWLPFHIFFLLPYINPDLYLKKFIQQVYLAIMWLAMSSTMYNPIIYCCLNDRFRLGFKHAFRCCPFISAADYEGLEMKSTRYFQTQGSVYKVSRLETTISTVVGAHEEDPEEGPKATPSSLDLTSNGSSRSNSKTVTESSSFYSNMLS

MOR [1] = assay: Guinea pig isolated ileum (GPI) functional assay; assay type: cell-based; details: for IC50: agonist activity, electrically stimulated tissue, read-out: GPI (MOR) IC50
MOR [2] = assay: Radioligand binding assay at μ opioid receptor; details: for Log[IC50±] (μ): log IC50 ± error; for Ki^μ/Ki^δ: ratio of binding affinities MOR/DOR
Experimental: (§1) Binding affinities of these ligands were measured on radioligand binding assays. […] ([43]).

hNK1 = biological target: T2, hNK1 (Homo sapiens, UniProt P25103); assay: hNK1/CHO cell membrane radioligand binding assay ([3H]SP); details: for Ki^hNK1/Ki^rNK1: ratio human/rat NK1; for Ki: Ki^hNK1 (nM), hNK1/CHO membranes, [3H]SP
T2 construct: expressed in transfected cells; host or cells: CHO
T2 sequence (P25103 whole entry): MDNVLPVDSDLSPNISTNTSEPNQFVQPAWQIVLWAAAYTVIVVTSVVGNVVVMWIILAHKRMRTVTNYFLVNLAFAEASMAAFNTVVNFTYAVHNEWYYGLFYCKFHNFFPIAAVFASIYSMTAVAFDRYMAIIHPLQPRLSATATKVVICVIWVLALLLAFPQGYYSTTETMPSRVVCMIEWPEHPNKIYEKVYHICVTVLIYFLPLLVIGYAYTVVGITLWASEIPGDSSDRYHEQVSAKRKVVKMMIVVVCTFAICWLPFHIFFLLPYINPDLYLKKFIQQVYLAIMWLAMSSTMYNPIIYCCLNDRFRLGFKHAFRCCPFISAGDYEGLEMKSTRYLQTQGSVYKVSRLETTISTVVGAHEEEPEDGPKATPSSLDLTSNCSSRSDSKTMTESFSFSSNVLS

DOR = DOR (Homo sapiens, UniProt P41143); assay: Radioligand binding assay at δ opioid receptor; details: for Ki: Ki^δ (nM)
Chain of DOR (P41143 whole entry): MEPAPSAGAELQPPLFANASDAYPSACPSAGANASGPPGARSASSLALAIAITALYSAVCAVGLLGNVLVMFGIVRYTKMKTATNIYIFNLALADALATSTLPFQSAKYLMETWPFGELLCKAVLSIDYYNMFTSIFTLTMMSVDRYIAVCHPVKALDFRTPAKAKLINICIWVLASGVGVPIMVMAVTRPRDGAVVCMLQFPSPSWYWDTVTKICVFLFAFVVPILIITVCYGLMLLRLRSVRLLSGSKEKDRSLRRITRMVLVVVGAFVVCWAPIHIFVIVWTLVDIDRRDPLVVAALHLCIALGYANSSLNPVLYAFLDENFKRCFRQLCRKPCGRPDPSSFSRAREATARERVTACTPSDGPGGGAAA
Experimental: as §1

SMILES	Ki (MOR [2])	Log[IC50±] (μ) (MOR [2])	Ki^hNK1/Ki^rNK1 (hNK1)	further results
CC(C)C[C@H](NC(=O)[C@@H]1CCCN1C(=O)[C@H](Cc1ccc(O)cc1)NC(=O)CNC(=O)[C@H](Cc1ccccc1)NC(=O)[C@@H](C)NC(=O)[C@@H](N)Cc1ccc(O)cc1)C(=O)N[C@@H](Cc1c[nH]c2ccccc12)C(=O)N(C)Cc1cc(C(F)(F)F)cc(C(F)(F)F)c1 [QXP04] (H-Y[dA]FGYPLW-{NMeBn(3,5-(CF3)2)})	10 nM	−7.66 ± 0.05	–	GPI/LMMP (NK1R) Agonist (NK1R): None at 1 uM; GPI/MVD IC50 ratio (MOR [1]): 23/1; IC50 (MOR [1]): 389 ± 180 nM; Ki^μ/Ki^δ (MOR [2]): 1/7
Cc1cc(O)cc(C)c1C[C@H](N)C(=O)N[C@H](C)C(=O)N[C@@H](Cc1ccccc1)C(=O)NCC(=O)N[C@@H](Cc1ccc(O)cc1)C(=O)N1CCC[C@H]1C(=O)N[C@@H](CC(C)C)C(=O)N[C@@H](Cc1c[nH]c2ccccc12)C(=O)NCc1cc(C(F)(F)F)cc(C(F)(F)F)c1 [AKG118] (H-[Dmt][dA]FGYPLW-{NH(3,5-(CF3)2-benzyl)})	1 nM	−8.65 ± 0.12	1/11	Ki^μ/Ki^δ (MOR [2]): 1/3
Cc1cc(O)cc(C)c1C[C@H](N)C(=O)N[C@H](C)C(=O)NCC(=O)N[C@@H](Cc1ccc(Br)cc1)C(=O)N1CCC[C@H]1C(=O)N[C@@H](CC(C)C)C(=O)N[C@@H](Cc1c[nH]c2ccccc12)C(=O)NCc1cc(C(F)(F)F)cc(C(F)(F)F)c1 [AKG192, H-Dmt-D-Ala-Gly-Phe(4-Br)-Pro-Leu-Trp-NH-Bn(3′,5′-(CF3)2)]	5 nM	−7.96 ± 0.12	–	Kb (NK1R; GPI/LMMP (NK1R) Ke (nM) ± S.E.M., antagonist activity): 23.4 ± 8.9 nM; IC50 (MOR [1]): 463 ± 114 nM
CSCC[C@H](NC(=O)[C@H](Cc1ccccc1)N(C)C(=O)CNC(=O)[C@@H](C)NC(=O)[C@@H](N)Cc1ccc(O)cc1)C(=O)N1CCC[C@H]1C(=O)N[C@@H](CC(C)C)C(=O)N[C@@H](Cc1c[nH]c2ccccc12)C(=O)NCc1cc(C(F)(F)F)cc(C(F)(F)F)c1 [AKG106]	–	–	1/7	–
Cc1cc(O)cc(C)c1C[C@H](N)C(=O)N[C@H](C)C(=O)N(C)CC(=O)N[C@@H](Cc1ccccc1)C(=O)N1CCC[C@H]1C(=O)N[C@@H](CC(C)C)C(=O)N[C@@H](Cc1c[nH]c2ccccc12)C(=O)NCc1cc(C(F)(F)F)cc(C(F)(F)F)c1 [AKG180, H-Dmt-D-Ala-NMeGly-Phe-Pro-Leu-Trp-NH-Bn(3′,5′-(CF3)2)]	–	–	1/6	–
CC(C)C[C@H](NC(=O)[C@@H]1CCCN1C(=O)[C@H](CCC(N)=O)NC(=O)[C@H](Cc1ccccc1)N(C)C(=O)CNC(=O)[C@@H](C)NC(=O)[C@@H](N)Cc1ccc(O)cc1)C(=O)N[C@@H](Cc1c[nH]c2ccccc12)C(=O)NCc1cc(C(F)(F)F)cc(C(F)(F)F)c1 [AKG129]	7 nM	−7.84 ± 0.11	–	–
CC(C)C[C@H](NC(=O)[C@@H]1CCCN1C(=O)[C@@H](CCC(N)=O)NC(=O)[C@H](Cc1ccccc1)NC(=O)CNC(=O)[C@@H](C)NC(=O)[C@@H](N)Cc1ccc(O)cc1)C(=O)N[C@@H](Cc1c[nH]c2ccccc12)C(=O)NCc1cc(C(F)(F)F)cc(C(F)(F)F)c1 [AKG103]	120 nM and 116 nM	−6.57 ± 0.05	–	Ki (hNK1): 2.1 nM; IC50 (DOR): 155 nM; Ki (DOR): 72 nM
CC(C)C[C@H](NC(=O)[C@@H]1CCCN1C(=O)[C@H](CCCCN)NC(=O)[C@H](Cc1ccccc1)N(C)C(=O)CNC(=O)[C@@H](C)NC(=O)[C@@H](N)Cc1ccc(O)cc1)C(=O)N[C@@H](Cc1c[nH]c2ccccc12)C(=O)NCc1cc(C(F)(F)F)cc(C(F)(F)F)c1 [AKG174] (H-Y[dA]G[NMeF]KPLW-{NH(3,5-(CF3)2-benzyl)}; N-terminus assumed)	8 nM	−7.81 ± 0.08	–	–
Cc1cc(O)cc(C)c1C[C@H](N)C(=O)N(C)[C@H](C)C(=O)N(C)CC(=O)N[C@@H](Cc1ccccc1)C(=O)N1CCC[C@H]1C(=O)N[C@@H](CC(C)C)C(=O)N[C@@H](Cc1c[nH]c2ccccc12)C(=O)NCc1cc(C(F)(F)F)cc(C(F)(F)F)c1 [AKG183, H-Dmt-D-NMeAla-NMeGly-Phe-Pro-Leu-Trp-NH-Bn(3′,5′-(CF3)2)]	–	–	1/7	–
CC(C)C[C@H](NC(=O)[C@@H]1CCCN1C(=O)[C@H](CCC(N)=O)NC(=O)[C@H](Cc1ccc(F)cc1)N(C)C(=O)CNC(=O)[C@@H](C)NC(=O)[C@@H](N)Cc1ccc(O)cc1)C(=O)N[C@@H](Cc1c[nH]c2ccccc12)C(=O)NCc1cc(C(F)(F)F)cc(C(F)(F)F)c1 [AKG143]	2 nM	−8.35 ± 0.07	–	Ki (hNK1): 3.2 nM; IC50 (DOR): 1.45 nM; Ki (DOR): 0.7 nM
CC(C)C[C@H](NC(=O)[C@@H]1CCCN1C(=O)[C@H](CCC(N)=O)NC(=O)[C@H](Cc1ccc(F)cc1)NC(=O)CNC(=O)[C@@H](C)NC(=O)[C@@H](N)Cc1ccc(O)cc1)C(=O)N[C@@H](Cc1c[nH]c2ccccc12)C(=O)NCc1cc(C(F)(F)F)cc(C(F)(F)F)c1 [AKG142]	8 nM	−7.67 ± 0.07	–	IC50 (DOR): 3.39 nM; Ki (DOR): 2 nM
Cc1cc(O)cc(C)c1C[C@H](N)C(=O)N(C)[C@H](C)C(=O)N(C)CC(=O)N(C)[C@@H](Cc1ccccc1)C(=O)N1CCC[C@H]1C(=O)N[C@@H](CC(C)C)C(=O)N[C@@H](Cc1c[nH]c2ccccc12)C(=O)NCc1cc(C(F)(F)F)cc(C(F)(F)F)c1 [AKG185, H-Dmt-D-NMeAla-NMeGly-NMePhe-Pro-Leu-Trp-NH-Bn(3′,5′-(CF3)2)]	–	–	1/21	–
Cc1cc(O)cc(C)c1C[C@H](N)C(=O)N[C@H](C)C(=O)NCC(=O)N(C)[C@@H](Cc1ccc(F)cc1)C(=O)N[C@@H](CCC(N)=O)C(=O)N1CCC[C@H]1C(=O)N[C@@H](CC(C)C)C(=O)N[C@@H](Cc1c[nH]c2ccccc12)C(=O)NCc1cc(C(F)(F)F)cc(C(F)(F)F)c1 [AKG144]	0.5 nM	−8.94 ± 0.07	–	IC50 (DOR): 0.437 nM; Ki (DOR): 0.2 nM
Cc1cc(O)cc(C)c1C[C@H](N)C(=O)N(C)[C@H](C)C(=O)NCC(=O)N(C)[C@@H](Cc1ccccc1)C(=O)N1CCC[C@H]1C(=O)N[C@@H](CC(C)C)C(=O)N[C@@H](Cc1c[nH]c2ccccc12)C(=O)NCc1cc(C(F)(F)F)cc(C(F)(F)F)c1 [AKG184, H-Dmt-D-NMeAla-Gly-NMePhe-Pro-Leu-Trp-NH-Bn(3′,5′-(CF3)2)]	–	–	1/40	–
CSCC[C@H](NC(=O)[C@H](Cc1ccccc1)N(C)C(=O)CNC(=O)[C@@H](C)NC(=O)[C@@H](N)Cc1c(C)cc(O)cc1C)C(=O)N1CCC[C@H]1C(=O)N[C@@H](CC(C)C)C(=O)N[C@@H](Cc1c[nH]c2ccccc12)C(=O)NCc1cc(C(F)(F)F)cc(C(F)(F)F)c1 [AKG107]	–	–	1/7	–
Cc1cc(O)cc(C)c1C[C@H](N)C(=O)N[C@H](C)C(=O)NCC(=O)N[C@@H](Cc1ccc(I)cc1)C(=O)N1CCC[C@H]1C(=O)N[C@@H](CC(C)C)C(=O)N[C@@H](Cc1c[nH]c2ccccc12)C(=O)NCc1cc(C(F)(F)F)cc(C(F)(F)F)c1 [AKG193, H-Dmt-D-Ala-Gly-Phe(4-I)-Pro-Leu-Trp-NH-Bn(3′,5′-(CF3)2)]	6 nM	−7.88 ± 0.07	–	GPI (MOR) % at 1 uM (MOR [1]; at 1 uM): 41% at 1 uM
CC(C)C[C@H](NC(=O)[C@@H]1CCCN1C(=O)[C@H](Cc1ccccc1)N(C)C(=O)[C@H](Cc1ccccc1)NC(=O)[C@@H]1CCCN1C(=O)[C@@H](N)Cc1ccc(O)cc1)C(=O)N[C@@H](Cc1c[nH]c2ccccc12)C(=O)NCc1cc(C(F)(F)F)cc(C(F)(F)F)c1 [AKG224, H-Tyr-Pro-Phe-NMePhe-Pro-Leu-Trp-NH-Bn(3′,5′-(CF3)2)] (H-YPF[NMeF]PLW-{NH(3,5-(CF3)2-benzyl)})	–	–	1/10	–
Cc1cc(O)cc(C)c1C[C@H](N)C(=O)N(C)[C@H](C)C(=O)NCC(=O)N[C@@H](Cc1ccccc1)C(=O)N1CCC[C@H]1C(=O)N[C@@H](CC(C)C)C(=O)N[C@@H](Cc1c[nH]c2ccccc12)C(=O)NCc1cc(C(F)(F)F)cc(C(F)(F)F)c1 [AKG181, H-Dmt-D-NMeAla-Gly-Phe-Pro-Leu-Trp-NH-Bn(3′,5′-(CF3)2)]	–	–	1/5	–
CC(C)C[C@H](NC(=O)[C@@H]1CCCN1C(=O)CCNC(=O)[C@H](Cc1ccccc1)N(C)C(=O)CNC(=O)[C@@H](C)NC(=O)[C@@H](N)Cc1ccc(O)cc1)C(=O)N[C@@H](Cc1c[nH]c2ccccc12)C(=O)NCc1cc(C(F)(F)F)cc(C(F)(F)F)c1 [AKG119, H-Tyr-D-Ala-Gly-NMePhe-β-Ala-Pro-Leu-Trp-NH-Bn(3′,5′-(CF3)2)]	8 nM	−7.76 ± 0.11	1/32	GPI/LMMP (NK1R) Agonist (NK1R): None at 100 nM; GPI/MVD IC50 ratio (MOR [1]): 10/1; IC50 (MOR [1]): 365 ± 186 nM
Cc1cc(O)cc(C)c1C[C@H](N)C(=O)N[C@H](C)C(=O)NCC(=O)N(C)[C@@H](Cc1ccccc1)C(=O)N[C@@H](CCC(N)=O)C(=O)N1CCC[C@H]1C(=O)N[C@@H](CC(C)C)C(=O)N[C@@H](Cc1c[nH]c2ccccc12)C(=O)NCc1cc(C(F)(F)F)cc(C(F)(F)F)c1 [AKG141]	–	–	1/10	–
CC(C)C[C@H](NC(=O)[C@@H]1CCCN1C(=O)[C@H](CCCN)NC(=O)[C@H](Cc1ccccc1)N(C)C(=O)CNC(=O)[C@@H](C)NC(=O)[C@@H](N)Cc1ccc(O)cc1)C(=O)N[C@@H](Cc1c[nH]c2ccccc12)C(=O)NCc1cc(C(F)(F)F)cc(C(F)(F)F)c1 [AKG173] (H-Y[dA]G[NMeF][Orn]PLW-{NH(3,5-(CF3)2-benzyl)})	5 nM	−7.95 ± 0.08	–	Ki (hNK1): 15.5 nM; IC50 (DOR): 501 nM; binding selectivity for DOR over MOR (DOR): 100 times; Ki (DOR): 0.05 nM; Ki^μ/Ki^δ (MOR [2]): 100/1
